The subject of the assay is HEK293 cells. Description: Viability assay of HEK293 cells (CellTiter-Glo luminescent cell viability assay). It counts as cell-based, human. Conditions: 7 days (168 h) incubation, 3 μM to 0.00015 μM. The protocol:
Viability Assay of HEK293 Cells
A viability assay was performed using the CellTiter-Glo® Luminescent Cell Viability Assay (see Promega Corporation's Technical No. 288, pp. 1-11 [revised February 2004] which is hereby incorporated by reference in its entirety). This assay is a homogeneous method of determining the number of viable cells in culture based on quantitation of the ATP present, an indicator of metabolically active cells. The assay is designed for use with multiwell formats, making it ideal for automated high-throughput screening (HTS), cell proliferation and cytotoxicity assays. The homogeneous assay procedure involves adding a single reagent (containing luciferase, luciferan substrate, and buffer) directly to cells cultured in serum-supplemented medium. Cell washing, removal of medium and multiple pipetting steps are not required. The system detects as few as 15 cells/well in a 384-well format in 10 minutes after adding reagent and mixing.
The homogeneous “add-mix-measure” format results in cell lysis and generation of a luminescent signal proportional to the amount of ATP present. The amount of ATP is directly proportional to the number of cells present in culture. The above-referenced assay generates a “glow-type” luminescent signal, produced by the luciferase reaction, which has a half-life generally greater than five hours, depending on cell type and medium used. The extended half-life eliminates the need to use reagent injectors and provides flexibility for continuous or batch mode processing of multiple plates. […]
HEK293 cells (human embryonic kidney cell line transformed by Adenovirus 5 fragments, ATCC-No. CRL 1573) were cultivated in Dulbecco's Modified Eagle Medium (D-MEM) (1×) liquid (high glucose) (which includes L-Alanyl-L-Glutamine [a stabilized a form of L-Glutamine], 4500 mg/L glucose, and 110 mg/L sodium pyruvate) from Invitrogen Corporation (Invitrogen Catalog Number 31966-021 [now 10569-010] which is hereby incorporated by reference in its entirety), 5% Fetal Calf Serum (FCS, Sigma Cat-No. F4135 [FBS] which is hereby incorporated by reference in its entirety), and 100 Units/ml penicillin/100 μg/ml streptomycin (=Pen/Strep from Invitrogen Cat. No. 15140, which is hereby incorporated by reference in its entirety). […] After 7 days the above viability assay was performed in accordance with the following steps: • Step 1: The cell-plate was equilibrated to room temperature for approximately 30 minutes and than the assay reagent (containing luciferase, luciferan substrate, and buffer) was added. • Step 2: The contents were carefully mixed for 15 minutes to induce cell lysis. • Step 3: After 45 minutes the luminescent signal was measured in Victor 2, (scanning multiwell spectrophotometer, Wallac). […]

With `OC(CCCn1ccnn1)c1ccc(OCc2coc(/C=C/c3ccc(OC(F)(F)F)cc3)n2)cc1` (racemic) [Example 2, (rac)-4-[1,2,3]Triazol-1-yl-1-(4-{2-[(E)-2-(4-trifluoro-methoxyphenyl)-vinyl]-oxazol-4-ylmethoxy}-phenyl)-butan-1-ol], 21.1 nM corresponded to half-maximal inhibition (IC50).

The compound `O=C(CCCn1ccnn1)c1ccc(OCc2coc(/C=C/c3ccc(OC(F)(F)F)cc3)n2)cc1` [Example 1, 4-[1,2,3]Triazol-1-yl-1-(4-{2-[(E)-2-(4-trifluoromethoxy-phenyl)-vinyl]-oxazol-4-ylmethoxy}-phenyl)-butan-1-one] yielded an IC50 (Homo sapiens) of 17.9 nM.

`O=C(CCCn1ccnn1)c1ccc(OCc2coc(/C=C/c3ccc(SC(F)(F)F)cc3)n2)cc1` [Example 3, 4-[1,2,3]Triazol-1-yl-1-(4-{2-[(E)-2-(4-trifluoromethylsulfanyl-phenyl)-vinyl]-oxazol-4-ylmethoxy}-phenyl)-butan-1-one] had an IC50 (Homo sapiens) of 29.9 nM.

As to `O=C(CCCn1ccnn1)c1ccc(OCc2coc(C=Cc3ccc(C(F)(F)F)cc3)n2)cc1` [Reference compound, 4-[1,2,3]Triazol-1-yl-1-(4-{2-[2-(4-trifluoromethyl-phenyl)-vinyl]-oxazol-4-ylmethoxy}-phenyl)-butan-1-one, reference compound], under “Homo sapiens”, the IC50 was 164 nM.

By IC50 is commonly meant the concentration that gives 50% inhibition.

The values are drawn from US7288557B2, “Triazole derivatives” (Hoffmann-La Roche Inc., priority 2004, dated 2007).
